Assays:
Type in all cases: cell-based
[1] = system: HBV; test: anti-HBV activity, HepG2.2.15 stable transfected cell line, HBV DNA from secreted virions by realtime PCR; settings: Hepatitis B virus, 144 h, HepG2.2.15 cells, 6 days of treatment
[2] = system: HBV; test: anti HBV activity, HepG2.117 inducibly HBV producing cell line (Tet-off), intracellular HBV DNA by realtime PCR; settings: Hepatitis B virus, 72 h, HepG2.117 cells, 3 days of treatment
[3] = Cytotoxicity, HepG2 cells, Resazurin assay; settings: human

Row | SMILES | EC50 [1] [nM] | EC50 [2] [nM] | CC50 at 4 days [3] [nM]
1 | C[C@@H](NS(=O)(=O)c1cn(C)c(C(=O)Nc2cccc(C#N)n2)c1F)C(F)(F)F [Compound 25, N-(6-cyano-2-pyridyl)-3-fluoro-1-methyl-4-[[(1R)-2,2,2-trifluoro-1-methyl-ethyl]sulfamoyl]pyrrole-2-carboxamide] | 190 | > 1000 | > 25000
2 | CC[C@@H](NS(=O)(=O)c1cn(C)c(C(=O)Nc2ccnc(C#N)c2)c1Cl)C(F)(F)F [Compound 38, 3-chloro-N-(2-cyano-4-pyridyl)-1-methyl-4-[[(1R)-1-(trifluoromethyl)propyl]-sulfamoyl]pyrrole-2-carboxamide] | 40 | 50 | > 25000
3 | CC[C@H](NS(=O)(=O)c1cn(C)c(C(=O)Nc2ccnc(C#N)c2)c1Cl)C(F)(F)F [Compound 37, 3-chloro-N-(2-cyano-4-pyridyl)-1-methyl-4-[[(1S)-1-(trifluoromethyl)-propyl]sulfamoyl]pyrrole-2-carboxamide] | 150 | 200 | > 25000
4 | CC[C@H](NS(=O)(=O)c1cc(C(=O)Nc2ccnc(Cl)c2)n(C)c1)C(F)(F)F [Compound 47, N-(2-chloro-4-pyridyl)-1-methyl-4-[[(1S)-1-(trifluoromethyl)propyl]-sulfamoyl]pyrrole-2-carboxamide] | 60 | 40 | > 25000
5 | C[C@@H](NS(=O)(=O)c1cn(C)c(C(=O)Nc2ccnc(C(F)(F)F)c2)c1F)C(C)(F)F [Compound 60, 4-[[(1R)-2,2-difluoro-1-methyl-propyl]sulfamoyl]-3-fluoro-1-methyl-N-[2-(trifluoromethyl)-4-pyridyl]pyrrole-2-carboxamide] | 240 | 40 | > 25000
6 | Cn1cc(S(=O)(=O)NC2(C(F)(F)F)CCC2)cc1C(=O)Nc1ccnc(C#N)c1 [Compound 42, N-(2-cyano-4-pyridyl)-1-methyl-4-[[1-(trifluoromethyl)cyclobutyl]-sulfamoyl]pyrrole-2-carboxamide] | 50 | 80 | > 25000
7 | C[C@@H](NS(=O)(=O)c1cn(C)c(C(=O)Nc2ccnc(C#N)c2)c1Cl)C(C)(F)F [Compound 96, 3-chloro-N-(2-cyano-4-pyridyl)-4-[[(1R)-2,2-difluoro-1-methyl-propyl]sulfamoyl]-1-methyl-pyrrole-2-carboxamide] | 40 | 40 | > 25000
8 | Cn1cc(S(=O)(=O)NC2(C)CC(F)(F)C2)c(Cl)c1C(=O)Nc1ccnc(Cl)c1 [Compound 65, 3-chloro-N-(2-chloro-4-pyridyl)-4-[(3,3-difluoro-1-methyl-cyclobutyl)-sulfamoyl]-1-methyl-pyrrole-2-carboxamide] | 20 | 30 | > 25000
9 | C[C@@H](NS(=O)(=O)c1cn(C)c(C(=O)Nc2cc(Cl)nc(Cl)c2)c1F)C(F)(F)F [Compound 126, N-(2,6-dichloro-4-pyridyl)-3-fluoro-1-methyl-4-[[(1R)-2,2,2-trifluoro-1-methyl-ethyl]sulfamoyl]pyrrole-2-carboxamide] | 20 | 20 | > 25000
10 | C[C@@H](NS(=O)(=O)c1cn(C)c(C(=O)Nc2ccc(F)cn2)c1F)C(F)(F)F [Compound 28, 3-fluoro-N-(5-fluoro-2-pyridyl)-1-methyl-4-[[(1R)-2,2,2-trifluoro-1-methyl-ethyl]sulfamoyl]pyrrole-2-carboxamide] | 360 | 700 | > 25000
11 | Cn1cc(S(=O)(=O)NC2(C(F)(F)F)CC2)c(Cl)c1C(=O)Nc1ccnc(C#N)c1 [Compound 39, 3-chloro-N-(2-cyano-4-pyridyl)-1-methyl-4-[[1-(trifluoromethyl)cyclopropyl]-sulfamoyl]pyrrole-2-carboxamide] | 90 | 90 | > 25000
12 | C[C@@H](NS(=O)(=O)c1cn(C)c(C(=O)Nc2ccnc(C#N)c2F)c1Cl)C(F)(F)F [Compound 143, 3-chloro-N-(2-cyano-3-fluoro-4-pyridyl)-1-methyl-4-[[(1R)-2,2,2-trifluoro-1-methyl-ethyl]sulfamoyl]pyrrole-2-carboxamide] | 180 | 20 | > 25000
13 | C[C@@H](NS(=O)(=O)c1cn(C)c(C(=O)Nc2ccnc(Cl)c2F)c1F)C(F)(F)F [Compound 118, N-(2-chloro-3-fluoro-4-pyridyl)-3-fluoro-1-methyl-4-[[(1R)-2,2,2-trifluoro-1-methyl-ethyl]sulfamoyl]pyrrole-2-carboxamide] | 100 | 10 | > 25000
14 | C[C@@H](NS(=O)(=O)c1cn(C)c(C(=O)Nc2cccc(C(F)(F)F)n2)c1F)C(F)(F)F [Compound 26, 3-fluoro-1-methyl-4-[[(1R)-2,2,2-trifluoro-1-methyl-ethyl]sulfamoyl]-N-[6-(trifluoromethyl)-2-pyridyl]pyrrole-2-carboxamide] | 110 | > 1000 | > 25000
15 | Cn1cc(S(=O)(=O)NC2(C(F)(F)F)CC2)cc1C(=O)Nc1ccnc(C#N)c1 [Compound 49, N-(2-cyano-4-pyridyl)-1-methyl-4-[[1-(trifluoromethyl)cyclopropyl]-sulfamoyl]pyrrole-2-carboxamide] | 110 | 110 | > 25000
16 | CC[C@@H](NS(=O)(=O)c1cn(C)c(C(=O)Nc2ccnc(C(F)F)c2)c1Cl)C(F)(F)F [Compound 85, 3-chloro-N-[2-(difluoromethyl)-4-pyridyl]-1-methyl-4-[[(1R)-1-(trifluoromethyl)propyl]sulfamoyl]pyrrole-2-carboxamide] | 20 | 40 | 24000
17 | Cn1cc(S(=O)(=O)NC2(C)COC2)cc1C(=O)Nc1ccnc(C#N)c1 [Compound 1, N-(2-Cyanopyridin-4-yl)-1-methyl-4-[(3-methyloxetan-3-yl)sulfamoyl]-1H-pyrrole-2-carboxamide] | 860 | 650 | > 25000
18 | C[C@@H](NS(=O)(=O)c1cn(C)c(C(=O)Nc2ccnc(Cl)c2F)c1F)C(C)(F)F [Compound 125, N-(2-chloro-3-fluoro-4-pyridyl)-4-[[(1R)-2,2-difluoro-1-methyl-propyl]sulfamoyl]-3-fluoro-1-methyl-pyrrole-2-carboxamide] | < 100 | 8 | > 25000
19 | C[C@@H](NS(=O)(=O)c1cn(C)c(C(=O)Nc2cnc(F)c(Br)c2)c1F)C(F)(F)F [Compound 29, N-(5-bromo-6-fluoro-3-pyridyl)-3-fluoro-1-methyl-4-[[(1R)-2,2,2-trifluoro-1-methyl-ethyl]sulfamoyl]pyrrole-2-carboxamide] | 40 | 60 | > 25000
20 | Cc1cc(NC(=O)c2c(Cl)c(S(=O)(=O)N[C@H](C)C(F)(F)F)cn2C)cc(F)n1 [Compound 137, 3-chloro-N-(2-fluoro-6-methyl-4-pyridyl)-1-methyl-4-[[(1R)-2,2,2-trifluoro-1-methyl-ethyl]sulfamoyl]pyrrole-2-carboxamide] | < 100 | 20 | > 25000
21 | CC[C@@H](NS(=O)(=O)c1cn(C)c(C(=O)Nc2ccnc(C(F)F)c2)c1F)C(F)(F)F [Compound 87, N-[2-(difluoromethyl)-4-pyridyl]-3-fluoro-1-methyl-4-[[(1R)-1-(trifluoromethyl)propyl]sulfamoyl]pyrrole-2-carboxamide] | 20 | 30 | > 25000
22 | Cn1cc(S(=O)(=O)NC2(C(F)(F)F)CC2)c(Cl)c1C(=O)Nc1ccnc(Cl)c1 [Compound 45, 3-chloro-N-(2-chloro-4-pyridyl)-1-methyl-4-[[1-(trifluoromethyl)cyclopropyl]-sulfamoyl]pyrrole-2-carboxamide] | 50 | 40 | > 25000
23 | C[C@@H](NS(=O)(=O)c1cn(C)c(C(=O)Nc2cccc(C#N)n2)c1Cl)C(F)(F)F [Compound 22, 3-chloro-N-(6-cyano-2-pyridyl)-1-methyl-[[(1R)-2,2,2-trifluoro-1-methyl-ethyl]sulfamoyl]pyrrole-2-carboxamide] | 440 | 720 | > 25000
24 | C[C@@H](NS(=O)(=O)c1cn(C)c(C(=O)Nc2ccnc(F)c2F)c1Cl)C(F)(F)F [Compound 138, 3-chloro-N-(2,3-difluoro-4-pyridyl)-1-methyl-4-[[(1R)-2,2,2-trifluoro-1-methyl-ethyl]sulfamoyl]pyrrole-2-carboxamide] |  | 90 | > 25000
25 | Cn1cc(S(=O)(=O)NC2(CO)COC2)c(Cl)c1C(=O)Nc1ccnc(Cl)c1 [Compound 92] |  | 440 | > 25000
26 | Cc1cc(NC(=O)c2c(F)c(S(=O)(=O)NC3(C)CC(F)(F)C3)cn2C)cc(Cl)n1 [Compound 130, N-(2-chloro-6-methyl-4-pyridyl)-4-[(3,3-difluoro-1-methyl-cyclobutyl)sulfamoyl]-3-fluoro-1-methyl-pyrrole-2-carboxamide] |  | 60 | > 25000
27 | CC[C@@H](C)NS(=O)(=O)c1cn(C)c(C(=O)Nc2ccnc(C#N)c2)c1F [Compound 67] |  | 30 | > 25000
28 | Cc1cc(NC(=O)c2c(F)c(S(=O)(=O)NC3(C(F)(F)F)CCC3)cn2C)cc(C#N)n1 [Compound 171, N-(2-cyano-6-methyl-4-pyridyl)-3-fluoro-1-methyl-4-[[1-(trifluoromethyl)cyclobutyl]sulfamoyl]pyrrole-2-carboxamide] |  | 100 | > 25000
29 | Cn1cc(S(=O)(=O)NC2(C)CC(F)(F)C2)c(F)c1C(=O)Nc1ccnc(C(F)(F)F)c1 [Compound 55, 4-[(3,3-difluoro-1-methyl-cyclobutyl)sulfamoyl]-3-fluoro-1-methyl-N-[2-(trifluoromethyl)-4-pyridyl]pyrrole-2-carboxamide] |  | 70 | > 25000

— patent publication US11078193B2 (priority 2014, dated 2021)
